According to patent US20100267753A1, “METHODS OF TREATING DISORDERS ASSOCIATED WITH PROTEIN KINASE CK2 ACTIVITY” (priority 2009, published 2010):

Columns and labels:
DYRK2 = biological target: T1, DYRK2 (Homo sapiens, UniProt Q92630); experiment: Kinase panel IC-50, DYRK2; format: biochemical
T1 sequence (Q92630 1-601): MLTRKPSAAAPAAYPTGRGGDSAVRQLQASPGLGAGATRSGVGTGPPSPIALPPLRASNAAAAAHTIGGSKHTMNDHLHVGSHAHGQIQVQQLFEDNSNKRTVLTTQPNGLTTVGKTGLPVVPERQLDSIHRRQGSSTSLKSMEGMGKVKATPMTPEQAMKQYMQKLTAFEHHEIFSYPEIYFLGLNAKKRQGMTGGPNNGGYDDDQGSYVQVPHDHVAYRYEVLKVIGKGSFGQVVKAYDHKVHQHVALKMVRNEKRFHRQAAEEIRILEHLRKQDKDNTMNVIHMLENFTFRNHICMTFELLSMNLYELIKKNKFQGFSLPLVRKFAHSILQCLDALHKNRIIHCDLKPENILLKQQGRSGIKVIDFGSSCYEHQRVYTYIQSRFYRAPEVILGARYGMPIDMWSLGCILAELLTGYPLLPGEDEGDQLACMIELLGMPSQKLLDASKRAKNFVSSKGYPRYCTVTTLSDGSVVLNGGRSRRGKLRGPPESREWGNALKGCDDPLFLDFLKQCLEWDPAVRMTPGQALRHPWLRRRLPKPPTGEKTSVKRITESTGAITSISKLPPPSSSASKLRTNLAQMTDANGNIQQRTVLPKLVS

[1] = Pharmacokinetics in rat (IV bolus or oral dose); format: in vivo
Method: The pharmacokinetics properties of drugs were investigated in three species, following an intravenous (IV) bolus or oral (PO) dose of Compound K at the dosages indicated in the chart. Blood samples were collected at predetermined times and the plasma separated. Plasma was separated from the blood samples collected at 5, 15 and 30 minutes and 1, 2, 4, 8 and 24 hours post-dose.
Drug levels were quantified by the LC/MS/MS method described below. Noncompartmental pharmacokinetic analysis was applied for intravenous administration. A linear trapezoidal rule was used to compute AUC(0-24). The terminal t1/2 and C0 were calculated using the last three and the first three data points, respectively
Bioanalysis was performed using a Quattro Micro LC/MS/MS instrument in the MRM detection mode, with an internal standard (1S). Briefly, 15 μL plasma samples were prepared for analysis using protein precipitation with 120 μL of acetonitrile. The supernatants were transferred into a 96 well plate and subjected to LC-MS/MS analysis using a Phenomenex Polar-RP HPLC column. The mobile phases were 10 mM NH4HCO3 in water (Solution-A) and 10 mM NH4HCO3 in methanol (Solution-B). The column was initially equilibrated with 25% Solution-B and followed with 100% Solution B over 5 minutes. […] Quantitation of the analytes was performed in the batch mode with two bracketing calibration curves according to the bioanalytical sample list.

[2] = Pharmacokinetic summary across mouse, rat and dog; format: in vivo
Method: Particularly for chronic conditions, oral administration is preferred. Typical dosages for oral administration would be approximately 5-500 mg/kg per day.
For some embodiments, delivery of compound K by injection, such as intramuscular or intravenous, may be preferred. […] The dosage for injected delivery (IV) can be about half of the oral dosage since injection bypasses the absorption barriers that reduce oral bioavailability. For delivery by injection, lower doses such as 1-25 mg/kg per day may be used to achieve similar plasma levels of drug.

IL-8 = IL-8 production in prostate cancer cells; format: cell-based

O=C(O)c1ccc2c(c1)nc(Nc1cccc(Cl)c1)c1ccncc12 [Compound K, 5-(3-chlorophenylamino)benzo[c][2,6]naphthyridine-8-carboxylic acid]
IC50 (DYRK2): 91 nM
CLs ([1]; 5.2 mg/kg IV): 1.7 mL/min/kg
Terminal T1/2 ([1]; 5.2 mg/kg IV): 11.6 h
% F0-inf ([1]; 10.5 mg/kg PO): 47.8%
Cmax ([1]; plasma, 5.2 mg/kg IV): 38700 ng/mL
AUC(0-inf) ([1]; plasma, 5.2 mg/kg IV, 25 mM sodium phosphate buffer): 44300 ng·h/mL
Vd ([1]; plasma, 5.2 mg/kg IV, read-out: Vdss): 2 L/kg
Cmax ([1]; plasma, 10.5 mg/kg PO): 7370 ng/mL
AUC(0-inf) ([1]; plasma, 10.5 mg/kg PO, 25 mM phosphate buffer): 42300 ng·h/mL
half-life ([1]; plasma, 10.5 mg/kg PO, read-out: Terminal T1/2 (converted)): 12.3 h
bioavailability ([2]; plasma, po, rat and dog, administered orally): 20 to 50%
half-life ([2]; plasma, rat and dog, oral): 5 to 12 h
clearance rate in vivo ([2]; rat and dog): relatively low clearance rate
half-life ([2]; rat, dog, plasma, other: injected (such as intramuscular or intravenous), when injected): 5 to 12 h
IL-8 production (IL-8; ELISA (24 hr)): suppression of IL-8 production
IL-8 production (IL-8; qRT-PCR (8 hr)): suppression of IL-8 production
